pIC50: −log10 of the molar value.
Legend:
PARP1 = PARP1 (Homo sapiens, UniProt P09874); assay: PARP enzyme assay (PARP1, chemiluminescent histone ribosylation); conditions: for % inhibition 10 nM / % inhibition 100 nM: PARP enzyme assay; for % inhibition 10 nM: 10 nM compound, 0.01 µM; for % inhibition 100 nM: 100 nM compound, 0.1 µM; for inhibition at 0.01 µM: read-out: % inhibition 10 nM; for inhibition at 0.1 µM: read-out: % inhibition 100 nM
Protocol: 1) Coat 25 µL of histone solution onto a 384-well plate as described below: • Dilute 5x histone mixture 1:5 with PBS. • Add 25 µL of diluted histone solution to each well and incubate at 4° C. overnight. • Wash the plate three times using 100 µL PBST buffer (1x PBS containing 0.05% Tween20) per well. • Tap plate onto clean paper towel to remove liquid. • Block the wells by adding 100 µL of Blocking buffer 3 to every well. Incubate at room temperature for 1 h 15 minutes. • Wash plate three times with 100 µL PBST buffer as described above. • Tap plate onto clean paper towel to remove liquid.
1) Preparation of 1X PARP Buffer: • Prepare 1x PARP buffer by adding 1 part of 10x PARP buffer to 9 parts distilled water (v/v). To prepare 500 µL of 1X PARP buffer, add 50 µL 10X PARP Assay buffer to 450 µL of H2O and mix well.
2) Preparation of the Ribosylation master mixture: • N wells x (1.25 µL 10x PARP buffer + 1.25 µL 10X PARP Assay mixture + 2.5 µL Activated DNA + 7.5 µL distilled water). Add 12.5 µL to every well.
3) Preparation of the inhibitor solution: • 10 mM stock solution of the inhibitor was prepared in DMSO. From 10 mM stock solution, 250X concentrations of the inhibitor were made in DMSO. • 250X DMSO concentrations of the inhibitor were further diluted to 10X concentrations in 1X kinase buffer. • 2.5 µL (10X concentrations) of kinase buffer containing inhibitor was added to each well. • For the “Positive Control” and “Blank”, add 2.5 µL of kinase buffer containing DMSO (4%) was added. • The final DMSO concentration in the well was 0.4 %.
4) Preparation of the enzyme solution: • Thaw PARP1 enzyme on ice. Upon first thaw, briefly spin tube containing enzyme to recover full content of the tube. Calculate the amount of PARP1 required for the assay and dilute enzyme to 2.0 ng/µL with 1x PARP buffer. • Initiate reaction by adding 10 µL of diluted PARP1 enzyme to the wells designated “Positive Control” and “Test Inhibitor”. • To the wells designated as “Blank”, add 10 µL of 1X PARP buffer. • Centrifuge the plate at 1000 rpm for 30 seconds and incubate at room temperature for 60 min. • Discard the reaction mixture after 1 hour, and wash plate three times with 100 µL PBST buffer and tap plate onto clean paper towel as described above.
1) Preparation of Streptavidin-HRP: • Dilute Streptavidin-HRP 1:50 in Blocking buffer. • Add 25 µL of diluted Streptavidin-HRP to each well. Incubate for 30 min. at room temperature. • Wash three times with 100 µL PBST buffer and tap plate onto clean paper towel as above as described above.
2) Preparation of ECL substrate: • Just before use, mix on ice equal amounts of ELISA ECL Substrate A and ELISA ECL Substrate B and add 50 µL per well. • Immediately read the plate in microtiter-plate in Chemiluminescence setting. The “Blank” value is subtracted from all other values.

PARP2 = PARP2 (Homo sapiens, UniProt Q9UGN5); assay: PARP enzyme assay (PARP2); type: biochemical
Sequence of PARP2 (Q9UGN5 whole entry, species assumed): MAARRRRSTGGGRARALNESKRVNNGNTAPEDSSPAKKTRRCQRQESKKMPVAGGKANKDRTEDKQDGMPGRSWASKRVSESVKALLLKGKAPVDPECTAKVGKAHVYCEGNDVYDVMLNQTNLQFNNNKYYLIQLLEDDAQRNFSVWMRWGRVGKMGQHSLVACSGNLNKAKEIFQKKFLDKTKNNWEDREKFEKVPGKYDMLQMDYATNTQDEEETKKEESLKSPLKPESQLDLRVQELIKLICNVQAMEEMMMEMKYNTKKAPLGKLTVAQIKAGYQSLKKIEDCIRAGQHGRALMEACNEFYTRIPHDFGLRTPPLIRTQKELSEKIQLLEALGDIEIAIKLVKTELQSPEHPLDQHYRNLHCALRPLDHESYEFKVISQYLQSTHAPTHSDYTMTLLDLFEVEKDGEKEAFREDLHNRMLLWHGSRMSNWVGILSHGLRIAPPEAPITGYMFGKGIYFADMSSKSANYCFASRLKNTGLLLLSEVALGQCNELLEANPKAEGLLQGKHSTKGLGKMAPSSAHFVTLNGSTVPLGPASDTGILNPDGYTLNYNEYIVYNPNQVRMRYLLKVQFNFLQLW
Source text: Step 2: Ribosylation Reaction

Sequence of PARP1 (P09874 whole entry, species assumed): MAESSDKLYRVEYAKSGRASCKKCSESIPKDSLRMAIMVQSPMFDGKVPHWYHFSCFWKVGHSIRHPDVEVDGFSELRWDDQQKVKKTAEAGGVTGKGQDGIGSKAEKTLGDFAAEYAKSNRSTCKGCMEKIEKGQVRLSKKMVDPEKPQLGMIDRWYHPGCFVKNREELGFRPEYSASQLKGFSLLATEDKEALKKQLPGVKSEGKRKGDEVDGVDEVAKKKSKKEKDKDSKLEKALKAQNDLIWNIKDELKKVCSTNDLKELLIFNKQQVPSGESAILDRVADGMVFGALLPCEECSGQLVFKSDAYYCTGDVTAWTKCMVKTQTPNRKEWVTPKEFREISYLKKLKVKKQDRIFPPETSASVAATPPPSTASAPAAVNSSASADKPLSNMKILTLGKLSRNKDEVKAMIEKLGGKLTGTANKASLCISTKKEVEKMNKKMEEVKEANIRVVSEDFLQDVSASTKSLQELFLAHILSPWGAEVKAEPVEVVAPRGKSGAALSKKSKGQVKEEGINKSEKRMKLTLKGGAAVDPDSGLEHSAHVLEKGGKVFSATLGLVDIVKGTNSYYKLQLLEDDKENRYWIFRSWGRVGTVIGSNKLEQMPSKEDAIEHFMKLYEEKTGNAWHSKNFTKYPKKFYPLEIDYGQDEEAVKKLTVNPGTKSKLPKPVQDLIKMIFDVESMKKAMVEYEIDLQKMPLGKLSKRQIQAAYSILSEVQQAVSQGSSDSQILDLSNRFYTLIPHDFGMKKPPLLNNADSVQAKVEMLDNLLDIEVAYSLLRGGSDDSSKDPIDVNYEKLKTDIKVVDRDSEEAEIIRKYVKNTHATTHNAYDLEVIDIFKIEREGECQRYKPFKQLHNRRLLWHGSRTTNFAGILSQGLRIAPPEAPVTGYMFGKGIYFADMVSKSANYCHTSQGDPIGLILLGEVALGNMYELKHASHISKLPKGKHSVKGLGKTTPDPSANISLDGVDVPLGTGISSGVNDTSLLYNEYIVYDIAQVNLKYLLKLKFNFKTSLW

Row | Compound | melting point [°C] | % inhibition 10 nM (PARP1) | % inhibition 100 nM (PARP1) | inhibition at 0.01 µM (PARP1) [%] | inhibition at 0.1 µM (PARP1) [%] | IC50 (PARP2) [nM] | pIC50 (PARP1)
1 | O=C1N(c2cncc(Cc3n[nH]c(=O)c4ccccc34)c2)c2ccccc2C1(O)C(F)(F)F (single isomer, unassigned; (+)) [Example 26, (+)-4-((5-(3-Hydroxy-2-oxo-3-(trifluoromethyl)indolin-1-yl)pyridin-3-yl)methyl)phthalazin-1(2H)-one] | 170 to 174 | A (A represents >75% to 100%) | A (A represents >75% to 100%) |  |  |  | 
2 | O=C1N(c2cncc(Cc3n[nH]c(=O)c4ccccc34)c2)c2ccccc2C1(O)C(F)(F)F (single isomer, unassigned; (-)) [Example 27, (-)-4-((5-(3-Hydroxy-2-oxo-3-(trifluoromethyl)indolin-1-yl)pyridin-3-yl)methyl)phthalazin-1(2H)-one] | 210 to 214 | C (C represents >25% to ≤50%) | C (C represents >25% to ≤50%) |  |  |  | 
3 | CC1(O)C(=O)N(c2cc(Cc3n[nH]c(=O)c4ccccc34)ccc2F)c2ccccc21 (stereo not drawn) [Example 4, 4-(4-Fluoro-3-(3-hydroxy-3-methyl-2-oxoindolin-1-yl)benzyl)phthalazin-1(2H)-one] | 131 to 134 |  |  | 75 to 100 | 75 to 100 |  | 
4 | CCC1(O)C(=O)N(c2cncc(Cc3n[nH]c(=O)c4ccccc34)c2)c2ccccc21 (stereo not drawn) [Example 5, 4-((5-(3-Ethyl-3-hydroxy-2-oxoindolin-1-yl)pyridin-3-yl)methyl)phthalazin-1(2H)-one] | 117 to 120 |  |  | 75 to 100 | 75 to 100 |  | 
5 | CC1(O)C(=O)N(c2cncc(Cc3n[nH]c(=O)c4cc(F)ccc34)c2)c2ccccc21 (stereo not drawn) [Example 6, 7-Fluoro-4-((5-(3-hydroxy-3-methyl-2-oxoindolin-1-yl)pyridin-3-yl)methyl)phthalazin-1(2H)-one] | 133 to 136 |  |  |  |  | < 10 | 
6 | CC1(O)C(=O)N(c2cncc(Cc3n[nH]c(=O)c4ccc(F)cc34)c2)c2ccccc21 (stereo not drawn) [Example 9, 6-Fluoro-4-((5-(3-hydroxy-3-methyl-2-oxoindolin-1-yl)pyridin-3-yl)methyl)phthalazin-1(2H)-one] | 132 to 135 |  |  | 75 to 100 | 75 to 100 |  | 
7 | CC1(O)C(=O)N(c2cncc(Cc3n[nH]c(=O)c4cc(F)ccc34)c2)c2ccc(F)cc21 (stereo not drawn) [Example 10, 7-Fluoro-4-((5-(5-fluoro-3-hydroxy-3-methyl-2-oxoindolin-1-yl)pyridin-3-yl)methyl)phthalazin-1(2H)-one] | 157 to 160 |  |  | 75 to 100 | 75 to 100 |  | > 8.00
8 | CC1(O)C(=O)N(c2cncc(Cc3n[nH]c(=O)c4ccccc34)c2)c2cc(F)ccc21 (stereo not drawn) [Example 16] | 125 to 128 |  |  | 75 to 100 | 75 to 100 |  | 
9 | CC1(O)C(=O)N(c2cncc(Cc3n[nH]c(=O)c4cc(F)ccc34)c2)c2cc(F)ccc21 (stereo not drawn) [Example 17, 7-Fluoro-4-((5-(6-fluoro-3-hydroxy-3-methyl-2-oxoindolin-1-yl)pyridin-3-yl)methyl)phthalazin-1(2H)-one] | 219 to 221 |  |  | 75 to 100 | 75 to 100 |  | 
10 | CC1(O)C(=O)N(c2cccc(Cc3n[nH]c(=O)c4ccccc34)c2)c2ccccc21 (stereo not drawn) [Example 28, 4-(3-(3-Hydroxy-3-methyl-2-oxoindolin-1-yl)benzyl)phthalazin-1(2H)-one] | 240 to 243 |  |  | 75 to 100 | 75 to 100 |  | 
11 | CC1(O)C(=O)N(c2cc(Cc3n[nH]c(=O)c4cc(F)ccc34)ccc2F)c2ccccc21 (stereo not drawn) [Example 29, 7-Fluoro-4-(4-fluoro-3-(3-hydroxy-3-methyl-2-oxoindolin-1-yl)benzyl)phthalazin-1(2H)-one] | 207 to 210 |  |  | 75 to 100 | 75 to 100 |  | 
12 | COC1(C)C(=O)N(c2cncc(Cc3n[nH]c(=O)c4ccccc34)c2)c2ccccc21 (stereo not drawn) [Example 30, 4-((5-(3-methoxy-3-methyl-2-oxoindolin-1-yl)pyridin-3-yl)methyl)phthalazin-1(2H)-one] | 207 to 210 |  |  | 25 to 50 | 75 to 100 |  | 
13 | CC1(O)C(=O)N(c2cccc(Cc3n[nH]c(=O)c4ccccc34)c2)c2cnccc21 (stereo not drawn) [Example 31, 4-(3-(3-Hydroxy-3-methyl-2-oxo-2,3-dihydro-1H-pyrrolo[2,3-c]pyridin-1-yl)benzyl)phthalazin-1(2H)-one] | 133 to 136 |  |  | 25 to 50 | 75 to 100 |  | 
14 | CC(=O)OC1(C)C(=O)N(c2cncc(Cc3n[nH]c(=O)c4ccccc34)c2)c2ccccc21 (stereo not drawn) [Example 32, 3-Methyl-2-oxo-1-(5-((4-oxo-3,4-dihydrophthalazin-1-yl)methyl)pyridin-3-yl)indolin-3-yl acetate] | 237 to 239 |  |  | 75 to 100 | 75 to 100 |  | 
15 | O=C1Cc2ccccc2N1c1cc(Cc2n[nH]c(=O)c3ccccc23)ccc1F [Example 33, 4-(4-Fluoro-3-(2-oxoindolin-1-yl)benzyl)phthalazin-1(2H)-one] | 232 to 235 |  |  | 75 to 100 | 75 to 100 |  | 
16 | CC1(C)C(=O)N(c2cc(Cc3n[nH]c(=O)c4ccccc34)ccc2F)c2ccccc21 [Example 34, 4-(3-(3,3-Dimethyl-2-oxoindolin-1-yl)-4-fluorobenzyl)phthalazine-1(2H)-one] | 129 to 132 |  |  | 75 to 100 | 75 to 100 |  | 
17 | CC1(C)C(=O)N(c2cncc(Cc3n[nH]c(=O)c4ccccc34)c2)c2ccccc21 [Example 35, 4-((5-(3,3-Dimethyl-2-oxoindolin-1-yl)pyridin-3-yl)methyl)phthalazin-1(2H)-one] | 221 to 224 |  |  | 75 to 100 | 75 to 100 |  | 
18 | CC1(C)C(=O)N(c2cncc(Cc3n[nH]c(=O)c4ccccc34)c2)c2cccnc21 [Example 36, 4-((5-(3,3-Dimethyl-2-oxo-2,3-dihydro-1H-pyrrolo[3,2-b]pyridin-1-yl)pyridin-3-yl)methyl)phthalazin-1(2H)-one] | 242 to 245 |  |  | 25 to 50 | 75 to 100 |  | 
19 | CC1(C)C(=O)N(c2cc(Cc3n[nH]c(=O)c4ccccc34)ccc2F)c2cccnc21 [Example 37, 4-(3-(3,3-Dimethyl-2-oxo-2,3-dihydro-1H-pyrrolo[3,2-b]pyridin-1-yl)-4-fluorobenzyl)phthalazin-1(2H)-one] | 114 to 117 |  |  | 25 to 50 | 75 to 100 |  | 
20 | O=C1N(c2cncc(Cc3n[nH]c(=O)c4ccccc34)c2)c2ccccc2C12CC2 [Example 38, 1′-(5-((4-Oxo-3,4-dihydrophthalazin-1-yl)methyl)pyridin-3-yl)spiro[cyclopropane-1,3′-indolin]-2′-one] | 219 to 222 |  |  | 75 to 100 | 75 to 100 |  | 

Source: US20230234938A1 (RHIZEN PHARMACEUTICALS AG, priority 2020, published 2023)
